Values of other authors as cited in paper PMC10649572 (International Journal of Molecular Sciences, 2023).
No end group written: not given here.

Target: T1, CaM^WT (Homo sapiens, UniProt P0DP23)
T1 construct: made in house; host or cells: Escherichia coli BL21-CodonPlus(DE3)
Settings: in the presence and absence of Ca^2+; ref [38]

Q: With LMRMLSLKSLKKQMKKV [Peptide F] as the sequence, how does the “interaction with CaM” value read?
A: significant affinity
